Reference: ChEMBL document CHEMBL3217712, “Improved biodistribution, pharmacokinetics and photodynamic efficacy using a new photostable sulfonamide bacteriochlorin” (Medchemcomm, 2012)
Active and inactive are the calls of the source. The rule behind the calls is not given here.

Tests used:
[1] = Biodistribution in mouse Cloudman S91 tumor bearing DBA2 mouse muscle at 10 mg/kg, ip after 72 hrs; type: ADME, organism-based, Muscle tissue; parameters: dose 10 mg/kg, route intraperitoneal; settings: read-out: Drug uptake
[2] = Biodistribution in mouse Cloudman S91 tumor bearing DBA2 mouse blood at 10 mg/kg, ip after 2 hrs; type: ADME, organism-based; parameters: dose 10 mg/kg, route intraperitoneal; settings: read-out: Drug uptake
[3] = Biodistribution in mouse Cloudman S91 tumor bearing DBA2 mouse blood at 10 mg/kg, ip after 72 hrs; type: ADME, organism-based; parameters: dose 10 mg/kg, route intraperitoneal; settings: read-out: Drug uptake
[4] = Biodistribution in mouse Cloudman S91 tumor bearing DBA2 mouse lungs at 10 mg/kg, ip after 6 hrs; type: ADME, organism-based; parameters: dose 10 mg/kg, route intraperitoneal; settings: lung, read-out: Drug uptake
[5] = Biodistribution in mouse Cloudman S91 tumor bearing DBA2 mouse kidneys at 10 mg/kg, ip after 2 hrs; type: ADME, organism-based; parameters: dose 10 mg/kg, route intraperitoneal; settings: kidney, read-out: Drug uptake
[6] = Biodistribution in mouse Cloudman S91 tumor bearing DBA2 mouse intestine at 10 mg/kg, ip after 72 hrs; type: ADME, organism-based; parameters: dose 10 mg/kg, route intraperitoneal; settings: read-out: Drug uptake
[7] = Biodistribution in mouse Cloudman S91 tumor bearing DBA2 mouse kidneys at 10 mg/kg, ip after 6 hrs; type: ADME, organism-based; parameters: dose 10 mg/kg, route intraperitoneal; settings: kidney, read-out: Drug uptake
[8] = Biodistribution in mouse Cloudman S91 tumor bearing DBA2 mouse intestine at 10 mg/kg, ip after 12 hrs; type: ADME, organism-based; parameters: dose 10 mg/kg, route intraperitoneal; settings: read-out: Drug uptake
[9] = Biodistribution in mouse Cloudman S91 tumor bearing DBA2 mouse intestine at 10 mg/kg, ip after 24 hrs; type: ADME, organism-based; parameters: dose 10 mg/kg, route intraperitoneal; settings: read-out: Drug uptake
[10] = Biodistribution in mouse Cloudman S91 tumor bearing DBA2 mouse lungs at 10 mg/kg, ip after 12 hrs; type: ADME, organism-based; parameters: dose 10 mg/kg, route intraperitoneal; settings: lung, read-out: Drug uptake
[11] = Biodistribution in mouse Cloudman S91 tumor bearing DBA2 mouse kidneys at 10 mg/kg, ip after 72 hrs; type: ADME, organism-based; parameters: dose 10 mg/kg, route intraperitoneal; settings: kidney, read-out: Drug uptake
[12] = Biodistribution in mouse Cloudman S91 tumor bearing DBA2 mouse lungs at 10 mg/kg, ip after 48 hrs; type: ADME, organism-based; parameters: dose 10 mg/kg, route intraperitoneal; settings: lung, read-out: Drug uptake
[13] = Biodistribution in mouse Cloudman S91 tumor bearing DBA2 mouse skin at 10 mg/kg, ip after 24 hrs; type: ADME, organism-based, Zone of skin; parameters: dose 10 mg/kg, route intraperitoneal; settings: read-out: Drug uptake
[14] = n-Octanol-water partition coefficient, log P of the compound; type: physicochemical
[15] = system: S91; assay: Antitumor activity against mouse Cloudman S91 cells allografted in DBA2 mouse at 10 mg/kg, ip; type: functional, organism-based; parameters: dose 10 mg/kg
[16] = Biodistribution in mouse Cloudman S91 tumor bearing DBA2 mouse skin at 10 mg/kg, ip after 6 hrs; type: ADME, organism-based, Zone of skin; parameters: dose 10 mg/kg, route intraperitoneal; settings: read-out: Drug uptake
[17] = system: Nucleic Acid; assay: Ratio of drug level in tumor to muscle in mouse Cloudman S91 tumor bearing DBA2 mouse at 10 mg/kg, ip; type: ADME, organism-based; parameters: dose 10 mg/kg, route intraperitoneal; settings: in vivo
[18] = system: S91; assay: Photodynamic efficacy against mouse Cloudman S91 cells allografted in DBA2 mouse assessed as disappearance of tumor at 10 mg/kg, ip followed by irradiated with 96 J cm'-2 laser light for 20 mins; type: functional, organism-based; parameters: dose 10 mg/kg
[19] = Biodistribution in mouse Cloudman S91 tumor bearing DBA2 mouse spleen at 10 mg/kg, ip after 2 hrs; type: ADME, organism-based; parameters: dose 10 mg/kg, route intraperitoneal; settings: read-out: Drug uptake
[20] = Biodistribution in mouse Cloudman S91 tumor bearing DBA2 mouse tumour at 10 mg/kg, ip after 48 hrs; type: ADME, organism-based, Neoplasm; parameters: dose 10 mg/kg, route intraperitoneal; settings: read-out: Drug uptake
[21] = Biodistribution in mouse Cloudman S91 tumor bearing DBA2 mouse muscle at 10 mg/kg, ip after 48 hrs; type: ADME, organism-based, Muscle tissue; parameters: dose 10 mg/kg, route intraperitoneal; settings: read-out: Drug uptake
[22] = Biodistribution in mouse Cloudman S91 tumor bearing DBA2 mouse blood at 10 mg/kg, ip after 12 hrs; type: ADME, organism-based; parameters: dose 10 mg/kg, route intraperitoneal; settings: read-out: Drug uptake
[23] = Biodistribution in mouse Cloudman S91 tumor bearing DBA2 mouse heart at 10 mg/kg, ip after 2 hrs; type: ADME, organism-based; parameters: dose 10 mg/kg, route intraperitoneal; settings: read-out: Drug uptake
[24] = Biodistribution in mouse Cloudman S91 tumor bearing DBA2 mouse blood at 10 mg/kg, ip after 6 hrs; type: ADME, organism-based; parameters: dose 10 mg/kg, route intraperitoneal; settings: read-out: Drug uptake
[25] = Biodistribution in mouse Cloudman S91 tumor bearing DBA2 mouse tumour at 10 mg/kg, ip after 24 hrs; type: ADME, organism-based, Neoplasm; parameters: dose 10 mg/kg, route intraperitoneal; settings: read-out: Drug uptake
[26] = Biodistribution in mouse Cloudman S91 tumor bearing DBA2 mouse spleen at 10 mg/kg, ip after 48 hrs; type: ADME, organism-based; parameters: dose 10 mg/kg, route intraperitoneal; settings: read-out: Drug uptake
[27] = Biodistribution in mouse Cloudman S91 tumor bearing DBA2 mouse blood at 10 mg/kg, ip after 48 hrs; type: ADME, organism-based; parameters: dose 10 mg/kg, route intraperitoneal; settings: read-out: Drug uptake
[28] = system: Nucleic Acid; assay: Ratio of drug level in tumor to skin in mouse Cloudman S91 tumor bearing DBA2 mouse at 10 mg/kg, ip; type: ADME, organism-based; parameters: dose 10 mg/kg, route intraperitoneal; settings: in vivo
[29] = Biodistribution in mouse Cloudman S91 tumor bearing DBA2 mouse muscle at 10 mg/kg, ip after 12 hrs; type: ADME, organism-based, Muscle tissue; parameters: dose 10 mg/kg, route intraperitoneal; settings: read-out: Drug uptake
[30] = Biodistribution in mouse Cloudman S91 tumor bearing DBA2 mouse spleen at 10 mg/kg, ip after 24 hrs; type: ADME, organism-based; parameters: dose 10 mg/kg, route intraperitoneal; settings: read-out: Drug uptake
[31] = Biodistribution in mouse Cloudman S91 tumor bearing DBA2 mouse skin at 10 mg/kg, ip after 72 hrs; type: ADME, organism-based, Zone of skin; parameters: dose 10 mg/kg, route intraperitoneal; settings: read-out: Drug uptake
[32] = Biodistribution in mouse Cloudman S91 tumor bearing DBA2 mouse liver at 10 mg/kg, ip after 24 hrs; type: ADME, organism-based; parameters: dose 10 mg/kg, route intraperitoneal; settings: read-out: Drug uptake
[33] = Biodistribution in mouse Cloudman S91 tumor bearing DBA2 mouse skin at 10 mg/kg, ip after 12 hrs; type: ADME, organism-based, Zone of skin; parameters: dose 10 mg/kg, route intraperitoneal; settings: read-out: Drug uptake
[34] = Biodistribution in mouse Cloudman S91 tumor bearing DBA2 mouse liver at 10 mg/kg, ip after 6 hrs; type: ADME, organism-based; parameters: dose 10 mg/kg, route intraperitoneal; settings: read-out: Drug uptake
[35] = Biodistribution in mouse Cloudman S91 tumor bearing DBA2 mouse liver at 10 mg/kg, ip after 72 hrs; type: ADME, organism-based; parameters: dose 10 mg/kg, route intraperitoneal; settings: read-out: Drug uptake
[36] = Biodistribution in mouse Cloudman S91 tumor bearing DBA2 mouse muscle at 10 mg/kg, ip after 24 hrs; type: ADME, organism-based, Muscle tissue; parameters: dose 10 mg/kg, route intraperitoneal; settings: read-out: Drug uptake
[37] = Biodistribution in mouse Cloudman S91 tumor bearing DBA2 mouse heart at 10 mg/kg, ip after 6 hrs; type: ADME, organism-based; parameters: dose 10 mg/kg, route intraperitoneal; settings: read-out: Drug uptake

CCNS(=O)(=O)c1ccc(Cl)c(-c2c3nc(c(-c4c(Cl)ccc(S(=O)(=O)NCC)c4Cl)c4ccc([nH]4)c(-c4c(Cl)ccc(S(=O)(=O)NCC)c4Cl)c4nc(c(-c5c(Cl)ccc(S(=O)(=O)NCC)c5Cl)c5ccc2[nH]5)CC4)CC3)c1Cl
concentration at 72 h [1]: 15 ng/g | concentration at 2 h [2]: 90 ng/g | concentration at 72 h [3]: 50 ng/g | concentration at 6 h [4]: 300 ng/g | concentration at 2 h [5]: 100 ng/g | concentration at 72 h [6]: 300 ng/g | concentration at 6 h [7]: 400 ng/g | concentration at 12 h [8]: 1200 ng/g | concentration at 24 h [9]: 750 ng/g | concentration at 12 h [10]: 300 ng/g | concentration at 72 h [11]: 200 ng/g | concentration at 48 h [12]: 500 ng/g | concentration at 24 h [13]: 170 ng/g | logP [14]: 1.83 | Activity [15]: inactive | concentration at 6 h [16]: 70 ng/g | Ratio [17]: 7 | Activity [18]: Active | concentration at 2 h [19]: 2300 ng/g | concentration at 48 h [20]: 320 ng/g | concentration at 48 h [21]: 70 ng/g | concentration at 12 h [22]: 970 ng/g | concentration at 2 h [23]: 40 ng/g | concentration at 6 h [24]: 240 ng/g | concentration at 24 h [25]: 960 ng/g | concentration at 48 h [26]: 7300 ng/g | concentration at 48 h [27]: 130 ng/g | Ratio [28]: 6 | concentration at 12 h [29]: 120 ng/g | concentration at 24 h [30]: 10000 ng/g | concentration at 72 h [31]: 19 ng/g | concentration at 24 h [32]: 2000 ng/g | concentration at 12 h [33]: 180 ng/g | concentration at 6 h [34]: 4800 ng/g | concentration at 72 h [35]: 630 ng/g | concentration at 24 h [36]: 130 ng/g | concentration at 6 h [37]: 100 ng/g
